# Test results published in US6004933A, “Cysteine protease inhibitors” (Cortech Inc., priority 1998, dated 1999).
# Key:
# picornain 2A protease = experiment: Inhibitory activity against picornain 2A protease; format: biochemical; conditions: at 100 μM
# cathepsin B = target: T1, cathepsin B (Homo sapiens, UniProt P07858); experiment: Cathepsin B inhibition, fluorometric assay with Cbz-Phe-Arg-NHMec; format: biochemical; conditions: human enzyme; IC50 at substrate << Km taken as Ki; pH 6
# T1 construct: purchased Calbiochem (San Diego, Calif.)
# Text: (§1) The enzyme cathepsin B (E.C. 3.4.22.01) was obtained from Calbiochem (San Diego, Calif.); cathepsin L (E.C. 3.4.22.15) from Athens Research and Technology Inc. (Athens,Ga.); and papain (E.C. 3.4.22.02) from Sigma (St. Louis, Mo.).
# (§2) Cbz-Phe-Arg-NHMec (--NHMec: 7-(4-methyl)coumarylamide) was obtained from BachemCalifornia, Inc. (Torrance, Calif.). All other reagents were obtained from Sigma.
# (§3) The enzymes used in enzyme assays with methylcoumarylamides were activated as described elsewhere (Barret, et al., Methods Enzymol. 80:535-561 (1981); Bromme, et al., Biochem. J, 264: 475-481 (1989). Cathepsin L was assayed in 0.34 M sodium acetate buffer, pH 5.5, containing 0.1% (v/v) Brij 35, 2.5 mM dithiothreitol (DTT) and 5 mM Na2 -EDTA. Cathepsin B was assayed under the same conditions, except that the buffer was adjusted to pH 6. Papain was assayed in 50 mM sodium phosphate buffer, pH 6.8, containing 0.2 M sodium chloride, 2 mM DTT, 1 mM Na2 -EDTA and 0.025% Brij 35 (v/v).
# (§4) Initial velocities of enzymatic reactions were measured spectrofluorometrically (λex =370 nm, λem 460 nm) with a Quanta Master QM1 (Photon Technologies International, South Brunswick, N.J.). Stock solutions of the enzymes were diluted into the buffer, equilibrated at room temperature, and preincubated without or with increasing concentrations of inhibitors. The reactions were started by addition of substrate. A total of 4 to 8 inhibitor concentrations were used to determine IC50 values. In all cases the substrate concentrations were much smaller than the Km value, and the IC50 values measured approximated the Ki directly (Cheng, et al., Biochemical Pharmacology, 22:3099-3108 (1973)).
# cathepsin L = target: T2, cathepsin L (Homo sapiens, UniProt P07711); experiment: Cathepsin L inhibition, fluorometric assay with Cbz-Phe-Arg-NHMec; format: biochemical; conditions: human enzyme; IC50 at substrate << Km taken as Ki; pH 5.5
# T2 construct: purchased Athens Research and Technology Inc. (Athens,Ga.)
# T2 sequence (P07711 114-333): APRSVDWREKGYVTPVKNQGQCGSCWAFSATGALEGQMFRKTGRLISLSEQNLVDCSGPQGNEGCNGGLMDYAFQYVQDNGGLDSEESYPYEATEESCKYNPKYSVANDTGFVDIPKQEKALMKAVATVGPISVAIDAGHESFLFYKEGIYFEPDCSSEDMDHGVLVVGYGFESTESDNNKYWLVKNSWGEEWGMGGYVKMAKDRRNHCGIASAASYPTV
# Text: as §1, §2, §3, §4
# papain = target: T3, papain (Carica papaya, UniProt P00784); experiment: Papain inhibition, fluorometric assay with Cbz-Phe-Arg-NHMec; format: biochemical; conditions: IC50 at substrate << Km taken as Ki; pH 6.8
# T3 construct: purchased Sigma (St. Louis, Mo.)
# T3 sequence (P00784 134-345): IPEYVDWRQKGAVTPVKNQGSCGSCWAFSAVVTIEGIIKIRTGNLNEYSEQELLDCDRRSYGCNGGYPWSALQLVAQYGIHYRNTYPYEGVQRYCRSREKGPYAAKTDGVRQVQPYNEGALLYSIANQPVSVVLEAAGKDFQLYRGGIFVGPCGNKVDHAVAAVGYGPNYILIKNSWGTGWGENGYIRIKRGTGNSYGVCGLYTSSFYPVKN
# Text: as §1, §2, §3, §4
# gingipain R (RGP) = experiment: Gingipain assay, BAPNA cleavage at 405 nm; format: biochemical, human; conditions: 2 mM BAPNA, cell marked (IC50) in the Ki [nM] table
# Procedure: All assays were carried out in a 96 well microtiter plate reader and cleavage of BAPNA (Nα-benzoyl-DL-arginine-p-nitroanilide hydrochloride) was detected at 405 nm.
# All assays were performed as follows: 180 μl assay buffer (50 mM Tris, […], at pH 7.6) was mixed with 10 μl gingipain R (RGP). The mixture was incubated for 5 min. at room temperature to reduce and activate RGP. 10 μl of each inhibitor were added at various concentrations. These mixtures were incubated for 10 min. at room temperature to allow the inhibitors to complex with RGP. 50 μl of 10 mM BAPNA substrate was added. A two minute assay was performed with a final volume of 250 μl, and a final BAPNA concentration of 2 mM.
# For this reason, two minute assays were performed whereby the Vmax in mOD/min change in absorbance at 405 nm was used as the initial velocity reading. In order to titrate RGP against leupeptin and to determine % activity, these velocity readings were transformed on a percent scale where the 100% control contained no inhibitor. The initial velocity values were also entered into Graphpad Prism regression program along with the various inhibitor concentrations to obtain the IC50 values. All data represents the minimum of duplicates, and at times triplicate sets.
# ICE (Caspase 1) = target: T4, ICE (Caspase 1) (Homo sapiens, UniProt P29466); experiment: THP-1 assay: IL-1β release after LPS stimulation (assay for ICE inhibition); format: cell-based
# T4 construct: endogenous in cells; host or cells: THP-1
# T4 sequence (P29466 120-297 limits assumed): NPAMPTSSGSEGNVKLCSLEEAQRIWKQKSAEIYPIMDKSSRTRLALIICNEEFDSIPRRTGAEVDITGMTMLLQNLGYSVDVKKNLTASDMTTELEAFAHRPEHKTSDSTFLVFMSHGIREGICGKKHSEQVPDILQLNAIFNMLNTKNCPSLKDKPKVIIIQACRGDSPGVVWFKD
# T4 sequence (P29466 317-404 limits assumed): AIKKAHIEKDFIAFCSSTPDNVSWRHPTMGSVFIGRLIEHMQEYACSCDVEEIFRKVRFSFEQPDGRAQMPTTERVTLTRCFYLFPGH
# Text: To examine the ability of the caspase family inhibitors, CQ-0010 and CQ-0011, to inhibit human IL-1β production, two different assays were employed. In the first, the human monocytic cell line, THP-1, was stimulated with E. coli lipopolysaccharide (LPS serotype 0127-88; Sigma Chemical Co., St. Louis, Mo.) in the presence and absence of the inhibitors. This cell line synthesizes and secretes IL-1β and TNFα as well as other cytokines upon LPS stimulation. The second assay used freshly-isolated human whole blood similarly stimulated with LPS.
# Two×10^6 THP-1 cells were added to 24 well plates in 1 ml RPMI supplemented with 1% FCS, glutamine and 5×10^-5 M mercaptoethanol. Two-fold serial dilutions of the inhibitors, CQ-0010, CQ-0011 and the commmercially available Ac-YVAD-CHO (Biomol Research Laboratories Inc., Plymouth Meeting, Pa.), were preincubated with the cells for 15 min at 37° C. LPS was then added to a final concentration of 1 ug/ml and the plates incubated for 4 hr at 37° C. All incubations were carried out in a humidified incubator with 5% CO2 in air.
# Supernatants were harvested after 4 hr and assayed by ELISA for the presence of TNFα and IL-1β using commercially available kits (PerSeptive Biosystems, Framingham, Mass. and R&D Systems, Minneapolis, Minn., respectively).
# YAMA (CPP32, Caspase 3) = target: T5, YAMA (CPP32, Caspase 3) (Homo sapiens, UniProt P42574); experiment: Caspase inhibition, photometric, Ac-DEVD-pNA; format: biochemical; conditions: 20 μM Ac-DEVD-pNA, 37° C.
# T5 sequence (P42574 29-175 limits assumed): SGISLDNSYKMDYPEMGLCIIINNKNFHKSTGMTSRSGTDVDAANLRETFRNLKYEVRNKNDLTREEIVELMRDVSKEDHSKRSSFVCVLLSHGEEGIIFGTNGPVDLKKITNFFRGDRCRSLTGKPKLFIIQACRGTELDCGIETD
# T5 sequence (P42574 176-277 limits assumed): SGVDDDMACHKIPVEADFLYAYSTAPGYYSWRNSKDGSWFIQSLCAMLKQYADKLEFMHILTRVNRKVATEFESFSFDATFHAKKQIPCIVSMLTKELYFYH
# Procedure: (§5) Inhibition constants were measured photometrically for YAMA (caspase 3), Lap3 (caspase 7), FLICE (caspase 8), Mch2 (caspase 6) and granzyme B. The buffer used for all enzymes consisted of 50 mM Hepes, 100 mM sodium chloride, 10% (v/v) sucrose, 0.1% (v/v) CHAPS and 10 mM dithiothreitol (DTT). In the case of granzyme B, only 1 mM DTT was used.
# (§6) Enzymes were incubated at 37° C. for 10 minutes in 100 μL well plates and synthetic substrate and inhibitor were added simultaneously. Final substrate concentration was 20 μM in all cases. The synthetic substrate Ac-DEVD-pNA was used for all caspases and Succ-AAPD-pNA was used for granzyme B. The appearance of product was monitored over 10 minutes at 410 nm using a Spectromax 340 and IC50 curves were calculated from the initial slopes at varying inhibitor concentrations and inhibition constants were calculated.
# Mch2 (Caspase 6) = target: T6, Mch2 (Caspase 6) (Homo sapiens, UniProt P55212); experiment: Caspase inhibition, photometric, Ac-DEVD-pNA; format: biochemical; conditions: 20 μM Ac-DEVD-pNA, 37° C.
# T6 sequence (P55212 24-179 limits assumed): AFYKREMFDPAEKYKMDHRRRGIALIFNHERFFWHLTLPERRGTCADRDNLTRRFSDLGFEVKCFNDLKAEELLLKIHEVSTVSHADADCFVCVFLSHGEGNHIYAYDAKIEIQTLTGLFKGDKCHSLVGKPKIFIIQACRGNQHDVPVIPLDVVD
# T6 sequence (P55212 194-293 limits assumed): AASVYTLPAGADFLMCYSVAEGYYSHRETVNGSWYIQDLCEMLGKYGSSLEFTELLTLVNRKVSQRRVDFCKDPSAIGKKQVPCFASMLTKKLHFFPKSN
# Procedure: as §5, §6
# FLICE (Mch5, Caspase 8) = FLICE (Mch5, Caspase 8) (Homo sapiens, UniProt Q14790); experiment: Caspase inhibition, photometric, Ac-DEVD-pNA; format: biochemical; conditions: 20 μM Ac-DEVD-pNA, 37° C.; read-out: Ki, FLICE (Mch5, Caspase 8)
# FLICE (Mch5, Caspase 8), sequence (Q14790 217-374 limits assumed, species assumed): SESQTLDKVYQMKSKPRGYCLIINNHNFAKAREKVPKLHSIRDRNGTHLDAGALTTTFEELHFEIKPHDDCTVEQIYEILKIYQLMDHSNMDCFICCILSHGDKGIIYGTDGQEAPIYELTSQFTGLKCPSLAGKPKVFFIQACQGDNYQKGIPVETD
# FLICE (Mch5, Caspase 8), sequence (Q14790 385-479 limits assumed, species assumed): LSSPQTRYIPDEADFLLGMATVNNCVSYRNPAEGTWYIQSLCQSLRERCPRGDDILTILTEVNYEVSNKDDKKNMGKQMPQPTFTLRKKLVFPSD
# Procedure: as §5, §6
# Lap3 (Mch3, Caspase 7) = target: T7, Lap3 (Mch3, Caspase 7) (Homo sapiens, UniProt P55210); experiment: Caspase inhibition, photometric, Ac-DEVD-pNA; format: biochemical; conditions: 20 μM Ac-DEVD-pNA, 37° C.
# T7 sequence (P55210 24-198 limits assumed): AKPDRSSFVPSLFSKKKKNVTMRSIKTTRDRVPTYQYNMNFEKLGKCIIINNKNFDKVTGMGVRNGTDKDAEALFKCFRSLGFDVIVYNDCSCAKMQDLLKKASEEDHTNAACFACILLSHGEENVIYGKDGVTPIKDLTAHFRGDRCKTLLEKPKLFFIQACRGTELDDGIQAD
# T7 sequence (P55210 207-303 limits assumed): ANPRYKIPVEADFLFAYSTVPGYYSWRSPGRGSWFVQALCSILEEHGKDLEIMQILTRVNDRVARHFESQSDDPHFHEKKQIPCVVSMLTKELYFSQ
# Procedure: as §5, §6
# granzyme B = granzyme B (Homo sapiens, UniProt P10144); experiment: Granzyme B inhibition, photometric, Succ-AAPD-pNA; format: biochemical; conditions: 20 μM Succ-AAPD-pNA, 1 mM DTT
# granzyme B, sequence (P10144 21-247, species assumed): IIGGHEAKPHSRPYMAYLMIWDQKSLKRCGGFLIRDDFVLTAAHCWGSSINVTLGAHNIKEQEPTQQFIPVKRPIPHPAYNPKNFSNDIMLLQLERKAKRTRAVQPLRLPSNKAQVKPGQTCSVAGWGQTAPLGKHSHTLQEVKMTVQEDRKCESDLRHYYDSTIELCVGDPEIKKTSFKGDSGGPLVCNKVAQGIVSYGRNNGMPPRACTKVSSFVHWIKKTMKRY
# Procedure: as §5, §6
Compound,inhibition of picornain 2A protease (picornain 2A protease) [%],Ki (cathepsin B) [nM],Ki (cathepsin L) [nM],Ki (papain) [nM],also measured
"CC(C)[C@H](NC(=O)CCC(=O)OC(C)(C)C)C(=O)N1CCC[C@H]1C(=O)NC(Cc1ccccc1)C(=O)c1noc(Cc2cccc(C(F)(F)F)c2)n1 (stereo partly drawn) [CE-2060, (t-butoxysuccinyl)-L-valyl-N-[1-[3-[5-(3-trifluoromethylbenzyl)-1,2,4-oxadiazolyl]carbonyl]-2-benzylidone]-L-prolinamide]",100,,,,
"Cc1cccc(Cc2nnc(C(=O)C(NC(=O)[C@@H]3CCCN3C(=O)[C@@H](NC(=O)OCc3ccccc3)C(C)C)C(C)C)o2)c1 (stereo partly drawn) [CE-2072, (Benzyloxycarbonyl)-L-valyl-N-[1-(2-[5-(3-methylbenzyl)-1,3,4-oxadiazolyl]carbonyl)-2-(S)-methylpropyl]-L-prolinamide]",100,,,,
"Cc1cccc(Cc2nnc(C(=O)[C@@H](NC(=O)[C@H](Cc3ccccc3)NC(=O)[C@@H](CC(=O)O)CC(C)C)C(C)C)o2)c1 [CM-0019B, [[2-[5-(3-methylbenzyl)-1,3,4-oxadiazolyl]carbonyl]-2-(S)-methylpropyl]-L-phenylalanamide-(3R)-(isobutyl)succinic acid]",,3000,~100,85,
CC(=O)N[C@@H](CC(C)C)C(=O)N[C@@H](CC(C)C)C(=O)NC(CCCN=C(N)N)C(=O)c1nnc(-c2ccccc2)o1 (stereo partly drawn) [CQ-0002],,324 ± 46,6 ± 0.98,1200,IC50 (gingipain R (RGP)): 28 nM
"CC(=O)N[C@@H](CC(C)C)C(=O)N[C@@H](CC(C)C)C(=O)NC(C)C(=O)c1noc(C)n1 (stereo partly drawn) [CQ-0004, Acetyl-L-leucyl-N-[1-[3-[5-methyl]-1,2,4-oxadiazolyl]carbonyl]-ethyl-L-leucyl amide]",,27200 ± 1900,61 ± 14,25600 ± 5340,
"CC(=O)N[C@@H](CC(C)C)C(=O)N[C@@H](CC(C)C)C(=O)NC(CCCN=C(N)N)C(=O)c1noc(C)n1 (stereo partly drawn) [CQ-0008, Acetyl-L-leucyl-N-[1-[3-[5-methyl-1,2,4-oxadiazolyl]carbonyl]-4-(guanidino)-butyl]-L-leucyl amide]",,1240 ± 182,7.13 ± 0.32,8590 ± 1860,
"CC(=O)N[C@@H](CC(=O)O)C(=O)N[C@H](C(=O)N[C@@H](CCC(=O)O)C(=O)NC(CC(=O)O)C(=O)c1nnc(-c2ccccc2)o1)C(C)C (stereo partly drawn) [CQ-0011, Acetyl-L-Aspartyl-Valyl-N-[1-[2-[(5-phenyl)-1,3,4-oxadiazolyl]carbonyl]-2-(carboxy)-ethyl]-L-glutamyl amide]",,,,,"IC50 (ICE (Caspase 1); LPS 1 ug/ml, 4 hr, ELISA, read-out: IC50 of reduction of IL1β release from THP1 cell line): 3000 nM; potency in inhibiting IL1β production relative to CQ-0010 (fold less) (ICE (Caspase 1); THP-1 cells (FIG. 1; Table 4)): approximately 10 fold; Ki (YAMA (CPP32, Caspase 3)): ≤ 100 nM; Ki (Mch2 (Caspase 6)): 6.7 µM; Ki (FLICE (Mch5, Caspase 8)): ≤ 30 nM; Ki (Lap3 (Mch3, Caspase 7)): ≤ 30 nM; Ki, Granzyme (granzyme B): Not Active"
"CC(=O)N[C@@H](CC(C)C)C(=O)N[C@@H](CC(C)C)C(=O)N[C@H](C=O)CCCNC(=N)N [Leupeptin, reference compound]",,6.1 ± 1.2,0.62 ± 0.1,1 ± 0.06,IC50 (gingipain R (RGP)): 20.8 nM
"Carboxysuccinyl-L-valyl-N-[1-[3-[5-(3-trifluoromethylbenzyl)- 1,2,4-oxadiazolyl]carbonyl]-2-benzylidone]-L-prolinamide [CE-2061]",100,,,,
